Settings: 355.18 K, Liquid, Vibrating tube method

FC(F)=C(F)C(F)(F)F [hexafluoropropene]
Settings | mass density [kg/m3]
3539.3 kPa | 945.7
3560.5 kPa | 947.64
3582.1 kPa | 949.46
3603.9 kPa | 951.17
3625.9 kPa | 953.18
3667.2 kPa | 956.48
3687.7 kPa | 958.15
3708.3 kPa | 959.83
3730.3 kPa | 961.36
3751.6 kPa | 963.12
3773.4 kPa | 964.61
3795.3 kPa | 966.25
3807.5 kPa | 967.13
3828.9 kPa | 968.54
3851.4 kPa | 970.11
3873.7 kPa | 971.7
3916.8 kPa | 974.54
3938.9 kPa | 976.09
3959.3 kPa | 977.28
3981 kPa | 978.83
4015.2 kPa | 980.9
4033.6 kPa | 981.94
4071.4 kPa | 984.1
4091.9 kPa | 985.37
4110.7 kPa | 986.72
4129.8 kPa | 987.54
4149.4 kPa | 988.81
4167.6 kPa | 989.92
4186.6 kPa | 990.96
4206.8 kPa | 992.1
4226.2 kPa | 992.98
4244.6 kPa | 994.12
4263.6 kPa | 995.02
4281.8 kPa | 995.99
4338 kPa | 998.86
4375.5 kPa | 1000.94
4413 kPa | 1002.73
4449.8 kPa | 1004.57
4487.2 kPa | 1006.43
4525 kPa | 1008.13
4562.1 kPa | 1009.97
4599 kPa | 1011.6
4638.8 kPa | 1013.65
4677.4 kPa | 1015.25
4716.6 kPa | 1016.92
4794.9 kPa | 1020.36
4873.9 kPa | 1023.7
4913.4 kPa | 1025.32
4951 kPa | 1026.84
4991.2 kPa | 1028.51
5029.8 kPa | 1029.94
5070.6 kPa | 1031.42
5113 kPa | 1033.05
5154.1 kPa | 1034.66
5236.8 kPa | 1037.65
5275.8 kPa | 1039.14
5316.9 kPa | 1040.61
5355.6 kPa | 1041.9
5398.7 kPa | 1043.42
5439.2 kPa | 1044.89
5483.2 kPa | 1046.3
5561 kPa | 1048.84
5601.4 kPa | 1050.18
5642.3 kPa | 1051.53
5684.6 kPa | 1052.92
5724.6 kPa | 1054.21
5768.2 kPa | 1055.5
5808.2 kPa | 1056.73
5848.7 kPa | 1058.05
5893.8 kPa | 1059.3
5935.5 kPa | 1060.51
5972.8 kPa | 1061.59
6013.5 kPa | 1062.81
6113.5 kPa | 1065.75
6163.2 kPa | 1067.09
6213.3 kPa | 1068.54
6263.6 kPa | 1069.94
6313.1 kPa | 1071.25
6362.4 kPa | 1072.65
6411 kPa | 1074
6461.2 kPa | 1075.29
6562.7 kPa | 1077.95
6611.5 kPa | 1079.21
6661.1 kPa | 1080.53
6710.9 kPa | 1081.81
6761.1 kPa | 1083.05
6812.8 kPa | 1084.3
6865.2 kPa | 1085.67
6915.7 kPa | 1086.78
6965.9 kPa | 1088.01
7014.9 kPa | 1089.29
7065.8 kPa | 1090.44
7164.6 kPa | 1092.85
7216.4 kPa | 1093.92
7265.8 kPa | 1095.06
7366.2 kPa | 1097.33
7415.2 kPa | 1098.43
7466 kPa | 1099.6
7516.3 kPa | 1100.77
7566.3 kPa | 1101.91
7616.2 kPa | 1102.85
7718.1 kPa | 1105.05
7768.7 kPa | 1106.11
7817.3 kPa | 1107.12
7868.8 kPa | 1108.17
7921.6 kPa | 1109.13
7971.5 kPa | 1110.3
8069.1 kPa | 1112.3
8121.2 kPa | 1113.23
8171.1 kPa | 1114.28
8220.8 kPa | 1115.22
8273.9 kPa | 1116.3
8324.3 kPa | 1117.22
8376.9 kPa | 1118.25
8428.6 kPa | 1119.32
8478.5 kPa | 1120.28
8528.9 kPa | 1121.22
8578.5 kPa | 1122.06
8628.9 kPa | 1123.04
8681.5 kPa | 1124
8731.5 kPa | 1124.98
8781.2 kPa | 1125.78
8835.2 kPa | 1126.86
8886.8 kPa | 1127.78
8989.2 kPa | 1129.56
9039.4 kPa | 1130.46
9089.8 kPa | 1131.27
9138.1 kPa | 1132.17
9187.7 kPa | 1132.92
9238.4 kPa | 1133.87
9290.5 kPa | 1134.77
9339.3 kPa | 1135.6
9390.7 kPa | 1136.39
9440.4 kPa | 1137.24

Source: the NIST ThermoML archive (doi:10.1021/je900596d)
